This note sets out measurements from article PMC6522510 (Nature Communications, 2019).

Experiment [1] has as its system MV4-11. As to the kind of experiment: Secondary dose-response HTS, Cell Titer Glo. The note with it: Homo sapiens. The class given is cell-based, human. In general terms: ATP-based viability assays read luminescence as a measure of living cells.
For experiment [2], the system named is CHRF288-11. Briefly: Secondary dose-response HTS, Cell Titer Glo. The class given is cell-based, human. The note with it: Homo sapiens, HTS, read-out: average effective concentration, CHRF288-11.
Experiment [3] concerns CMK. Briefly: Secondary dose-response HTS, Cell Titer Glo. The class given is cell-based, human. The note with it: Homo sapiens, CMK, read-out: average effective concentration, CMK.
In experiment [4] the test system is CMS. As to the kind of experiment: Secondary dose-response HTS, Cell Titer Glo. The class given is cell-based, human. As to conditions: Homo sapiens, HTS, read-out: average effective concentration, CMS.
In experiment [5] the test system is ML2. As to the kind of experiment: Secondary dose-response HTS, Cell Titer Glo. In kind it is cell-based, human. As to conditions: Homo sapiens.
Experiment [6] has as its system MOLM-13. Briefly: cells. Also on record: species or system AML cell lines (8); Secondary HTS, 10-point dose-response in triplicate, Cell Titer Glo viability, four-parameter fit EC50. As to conditions: Homo sapiens, MOLM-13, 72 h, read-out: MOLM-13.
Experiment [7] has as its system M07e. Briefly: cells. Further details: species or system AML cell lines (8); Secondary HTS, 10-point dose-response in triplicate, Cell Titer Glo viability, four-parameter fit EC50. As to conditions: M-07e, 72 h, read-out: M07e.
Experiment [8] has as its system U937. As to the kind of experiment: cells. Also on record: species or system AML cell lines (8); Secondary HTS, 10-point dose-response in triplicate, Cell Titer Glo viability, four-parameter fit EC50. The note with it: Homo sapiens, U-937, 72 h, read-out: U937.
Experiment [9] concerns MOLM-13. Briefly: Secondary dose-response HTS, Cell Titer Glo. As to conditions: Homo sapiens. The class given is cell-based, human.
For experiment [10], the system named is U937. Briefly: Secondary dose-response HTS, Cell Titer Glo. In kind it is cell-based, human. As to conditions: Homo sapiens, U-937; secondary high-throughput screen; U937; read-out: average effective concentration, U937.
For experiment [11], the system named is CHRF288-11. Briefly: cells. Further details: species or system AML cell lines (8); Secondary HTS, 10-point dose-response in triplicate, Cell Titer Glo viability, four-parameter fit EC50. The note with it: 72 h, read-out: CHRF288-11.
In experiment [12] the test system is MV4-11. As to the kind of experiment: cells. Further details: species or system AML cell lines (8); Secondary HTS, 10-point dose-response in triplicate, Cell Titer Glo viability, four-parameter fit EC50. The note with it: Homo sapiens, MV4-11, 72 h, read-out: MV4-11.
Experiment [13] relates to CMS. As to the kind of experiment: cells. Also on record: species or system AML cell lines (8); Secondary HTS, 10-point dose-response in triplicate, Cell Titer Glo viability, four-parameter fit EC50. The note with it: 72 h, read-out: CMS.
Experiment [14] relates to CMK. Briefly: cells. As to conditions: Homo sapiens, CMK, 72 h, read-out: CMK. Also on record: species or system AML cell lines (8); Secondary HTS, 10-point dose-response in triplicate, Cell Titer Glo viability, four-parameter fit EC50.
In experiment [15] the test system is CHRF288-11. Also on record: species or system AML cell lines (8); Primary HTS, single concentration about 10 uM, Cell Titer Glo viability; log10 luminescence, per cent inhibition relative to cycloheximide control. As to conditions: 72 h, relative to cycloheximide control, log10 luminescence, inhibitor, CHRF288-11 %inh, 10 µM.
In experiment [16] the test system is CMK. Further details: species or system AML cell lines (8); Primary HTS, single concentration about 10 uM, Cell Titer Glo viability; log10 luminescence, per cent inhibition relative to cycloheximide control. As to conditions: 72 h, relative to cycloheximide control, log10 luminescence, inhibitor, CMK %inh, 10 µM.
In experiment [17] the test system is CMS. Further details: species or system AML cell lines (8); Primary HTS, single concentration about 10 uM, Cell Titer Glo viability; log10 luminescence, per cent inhibition relative to cycloheximide control. The note with it: 72 h, relative to cycloheximide control, log10 luminescence, inhibitor, CMS %inh, 10 µM.
The subject of experiment [18] is M07e. Also on record: species or system AML cell lines (8); Primary HTS, single concentration about 10 uM, Cell Titer Glo viability; log10 luminescence, per cent inhibition relative to cycloheximide control. The note with it: 72 h, relative to cycloheximide control, log10 luminescence, inhibitor, M07e %inh, 10 µM.
For experiment [19], the system named is ML-2. Further details: species or system AML cell lines (8); Primary HTS, single concentration about 10 uM, Cell Titer Glo viability; log10 luminescence, per cent inhibition relative to cycloheximide control. The note with it: 72 h, relative to cycloheximide control, log10 luminescence, inhibitor, ML-2 %inh, 10 µM.
Experiment [20] has as its system MV4-11. Further details: species or system AML cell lines (8); Primary HTS, single concentration about 10 uM, Cell Titer Glo viability; log10 luminescence, per cent inhibition relative to cycloheximide control. The note with it: 72 h, relative to cycloheximide control, log10 luminescence, inhibitor, MV4-11 %inh, 10 µM.
[21] abbreviates: secondary high-throughput screen, MV4-11, read-out: average effective concentration, MV4-11.
The mark [22] stands for this setting: secondary high-throughput screen, CHRF288-11.
[23] abbreviates: secondary high-throughput screen, ML-2, read-out: average effective concentration, ML-2.
Setting [24] is: secondary high-throughput screen, MOLM-13, read-out: average effective concentration, MOLM-13.
The mark [25] stands for this setting: secondary high-throughput screen.
[26] abbreviates: secondary high-throughput screen, CMS.

Where “and” joins values, the source holds several entries; their conditions need not be identical. Equal values may be shown once. Read-outs that look alike come from different tables or passages of the source.

As to `CC(C)c1cc(C(=O)N2Cc3ccc(CN4CCN(C)CC4)cc3C2)c(O)cc1O` [AT13387], the EC50 in experiment [1] (setting [21]) worked out at 8 nM; in experiment [2] (setting [22]) it was 39 nM; in experiment [3], 11 nM; in experiment [4], 34 nM; in [5] (setting [23]), 23 nM; in experiment [6], 9.4 nM. The EC50 in experiment [7] and in experiment [8] was over 10000 nM in each case.

Turning to `COCc1c(C(C)C)nc(C(C)C)c(/C=C/[C@@H](O)C[C@@H](O)CC(=O)O)c1-c1ccc(F)cc1` [CERIVASTATIN], the EC50 in experiment [9] (setting [24]) turned out to be 890 nM; in [1] (setting [21]), 340 nM; in experiment [2] (setting [22]), 49 nM; in experiment [3] (setting [25]), 160 nM; in [4] (setting [26]) it was 6800 nM; in experiment [5] (setting [23]), 1600 nM. Further, the EC50 is 2300 nM in experiment [10] and over 10000 nM in experiment [7].

As for `Cc1cnc(NC(=O)Nc2cc(Br)c(C)cc2OC[C@@H]2CNCCO2)cn1` [RABUSERTIB], the EC50 turned out to be 400 nM in [9] (setting [24]); 500 nM in experiment [1] (setting [21]); 2100 nM in [2] (setting [22]); 450 nM in [3] (setting [25]); 8500 nM in experiment [4] (setting [26]); 74 nM in experiment [5] (setting [23]). In addition, the figures for the EC50 in experiment [10] and in experiment [7] were 3300 nM and over 10000 nM, respectively.

As for `Nc1cc(C(F)(F)F)c(-c2cc(N3CCOCC3)nc(N3CCOCC3)n2)cn1` [BUPARLISIB], the EC50 in experiment [9] (setting [24]) amounted to 1500 nM; in [1] (setting [21]), 1800 nM; in [2] (setting [22]), 5700 nM; in experiment [3] it was 4100 nM; in experiment [4] it was 1600 nM; in experiment [5] (setting [23]), 1400 nM. Also, the EC50 in experiment [10] was 3000 nM; in [7], over 10000 nM.

Turning to `C[C@@H](Oc1cc(-n2cnc3ccc(CN4CCN(C)CC4)cc32)sc1C(N)=O)c1ccccc1C(F)(F)F` [GSK461364], the EC50 in [9] (setting [24]) worked out at 170 nM; in experiment [1] (setting [21]) it was 590 nM; in [3] it was 750 nM; in experiment [4], 10000 nM; in experiment [5] (setting [23]) it was 59 nM; in experiment [10] it was 90 nM. The EC50 in experiment [11] and in experiment [7] was over 10000 nM throughout.

Turning to `CNC(=O)c1nn(C)c2c1C(C)(C)Cc1cnc(Nc3ccc(N4CCN(C)CC4)cc3)nc1-2` [MILCICLIB], the EC50 in experiment [9] (setting [24]) worked out at 1 nM; in experiment [1] (setting [21]), 1 nM; in experiment [2] (setting [22]), 2200 nM; in experiment [3], 29 nM; in [4] it was 6400 nM; in [5] (setting [23]), 5600 nM. For the same compound, the EC50 in experiment [10] was 5300 nM; in [7], over 10000 nM.

Consider `COc1cc(F)c(F)c(Nc2ccc(I)cc2F)c1NS(=O)(=O)C1(C[C@H](O)CO)CC1` [REFAMETINIB], for which the EC50 in experiment [9] (setting [24]) was 1200 nM; in [3] (setting [25]) it was 8600 nM; in experiment [4] (setting [26]), over 10000 nM; in [5] (setting [23]) it was 1 nM; in [12], over 10000 nM; in [11], over 10000 nM. Besides, the EC50 in [7] and in experiment [8] was over 10000 nM in each case.

For the compound `CC(C)c1cc(-c2n[nH]c(=O)n2-c2ccc3c(ccn3C)c2)c(O)cc1O` [GANETESPIB], the EC50 in [9] (setting [24]) was 2.4 nM; in experiment [1] (setting [21]) it was 1 nM; in [2] (setting [22]), 7 nM; in experiment [3] it was 2.3 nM; in experiment [4], 10 nM; in [5] (setting [23]), 5.4 nM. Also, the EC50 is 1.6 nM in [10], 9.6 nM in [13] and over 10000 nM in experiment [7].

As to `CCC1=C[C@@H]2CN(C1)Cc1c([nH]c3ccccc13)[C@@](C(=O)OC)(c1cc3c(cc1OC)N(C)[C@H]1[C@@](O)(C(=O)OC)[C@H](OC(C)=O)[C@]4(CC)C=CCN5CC[C@]31[C@@H]54)C2` [VINORELBINE], the EC50 amounted to 29 nM in experiment [9] (setting [24]); 32 nM in [1] (setting [21]); 2100 nM in [2] (setting [22]); 240 nM in [4]; 40 nM in experiment [5] (setting [23]); 32 nM in experiment [10]. The EC50 in [14] and in experiment [7] was over 10000 nM throughout.

As to `NC(=O)Nc1cc(-c2cccc(F)c2)sc1C(=O)N[C@H]1CCCNC1` [AZD7762], the EC50 was over 10000 nM in [9] (setting [24]); 1 nM in [1] (setting [21]); 110 nM in experiment [2] (setting [22]); 45 nM in [3] (setting [25]); 680 nM in experiment [4] (setting [26]); 26 nM in [5] (setting [23]). The EC50 in experiment [10] is 63 nM; in experiment [7], over 10000 nM.

Take `C=CCNC1=C2C[C@@H](C)C[C@H](OC)[C@H](O)[C@@H](C)/C=C(\C)[C@H](OC(N)=O)[C@@H](OC)/C=C\C=C(/C)C(=O)NC(=CC1=O)C2=O` [TANESPIMYCIN]: the EC50 in experiment [9] (setting [24]) amounted to 80 nM; in experiment [1] (setting [21]) it was 120 nM; in [2] (setting [22]), 1300 nM; in [3] (setting [25]) it was 280 nM; in [4] (setting [26]), 180 nM; in experiment [5] (setting [23]), 100 nM. The EC50 was 50 nM in experiment [10] and over 10000 nM in experiment [7].

On to `Cn1cc(-c2cnn3c(N)c(Br)c([C@@H]4CCCNC4)nc23)cn1` [SCH-900776], for which the EC50 in experiment [9] (MOLM-13, read-out: average effective concentration, MOLM-13) is 51 nM; in experiment [1] (MV4-11, read-out: average effective concentration, MV4-11), 83 nM; in experiment [2], 470 nM; in experiment [3] it was 130 nM; in [4] it was over 10000 nM; in experiment [5] (ML-2, read-out: average effective concentration, ML-2), 53 nM. The EC50 in experiment [7] and in [8] was over 10000 nM throughout.

With `CC1(C)CCC(c2ccc(Cl)cc2)=C(CN2CCN(c3ccc(C(=O)NS(=O)(=O)c4ccc(N[C@H](CCN5CCOCC5)CSc5ccccc5)c(S(=O)(=O)C(F)(F)F)c4)cc3)CC2)C1` [NAVITOCLAX], the EC50 in [9] (setting [24]) is 5100 nM; in experiment [1] (setting [21]) it was 68 nM; in experiment [2] (setting [22]) it was over 10000 nM; in [3], 1200 nM; in experiment [4], 29 nM; in [5] (setting [23]), 7100 nM. Further, the EC50 in experiment [10] and in experiment [7] was over 10000 nM throughout. Further, the CHRF288-11 %inh in experiment [15] is 23.49% and 12.88%. In experiment [16], the CMK %inh was 132.4% and 82.78%. In addition, in experiment [17], the CMS %inh was 98.49% and 71.04%. Further, in experiment [18], the M07e %inh is 48.21% and 73.78%. Besides, the ML-2 %inh in experiment [19] was 57.75% and 49.42%. In experiment [20], the MV4-11 %inh is 77.41% and 95.61%.
